Legend:
GSCs [1] = test: Sphere formation assay of METTL3 or METTL14 KD GSCs with MA2; type: cell-based, human; settings: together with MA2
Protocol: Sphere formation assay: The sphere formation assay was performed as previously described (Cui et al., 2016). Briefly, three days after viral transduction, the transduced cells were seeded at 1 cell per well in 96-well plates (for those associated with the limiting dilution assay) or 100 cells per well in 48-well plates and cultured for 2 weeks. The sphere number was counted under microscope. The sphere formation rate was defined as the percentage of sphere-forming cells out of the number of starting cells.

[2] = tested on: normal neural stem cells (NSC) line NSC006; test: Cell growth assay, control cells (NSC006); type: cell-based
PBT003 cells [3] = test: Cell growth assay, MA2-treated GSCs (PBT003); type: cell-based, human; settings: PBT003, 60 μM and 80 μM, 48 h
Protocol: (§1) Treatment of GSCs with the FTO inhibitor MA2: GSCs were seeded at 5×10^4 cells per well in 48-well plates and cultured overnight. These cells were treated with MA2, a chemical inhibitor of FTO (Huang et al., 2015) at 20, 40, 60, 80 μM or vehicle control and cultured for 48 h. Cell number was counted using a hemocytometer. To determine the effect of MA2 on the level of m^6A RNA modification, GSCs were treated with 50 μM MA2 for 48 h. mRNAs were prepared and subjected to m^6A dot blot assay. To test the effect of MA2 in limiting dilution assay, GSCs were treated at 40 μM or vehicle control for two weeks.

HeLa cells = test: Cell growth assay, control cells (HeLa); type: cell-based
FTO = FTO (Homo sapiens, UniProt Q9C0B1); settings: Huang et al., 2015; cited from earlier work
GSCs [4] = test: Limiting dilution assay of GSCs treated with MA2; type: cell-based, human; settings: 40 μM, two weeks, vs control cells
Protocol: Limiting dilution assay: GSCs were transduced with relevant shRNA or METTL3-expressing lentivirus. The transduced GSCs were seeded at 1, 5, 10, 20, 50 and 100 cells per well into 96-well plates. The number of neurospheres in each well was counted two weeks after seeding cells. Extreme limiting dilution analysis was performed using software available at http://bioinf.wehi.edu.au/software/elda.
as §1

mRNA m^6A level in GSCs = test: m6A mRNA dot blot of GSCs treated with MA2; type: cell-based, human; settings: 50 μM MA2, 48 h, vs vehicle control
Protocol: m^6A dot blot assay: GSCs were either maintained in sphere cultures or induced into differentiation for 1 week using 0.5% fetal bovine serum (Sigma) together with 1 μM all-trans retinoic acid (Sigma). Total RNAs were isolated from these GSCs using Trizol reagent (Ambion). GSCs were transduced with lentivirus expressing METTL3 or METTL14 shRNA or METTL3 cDNA. Seven days after transduction, total RNAs were extracted. mRNAs were prepared from total RNAs using Dynabeads® mRNA purification kit (Ambion, Catalog #61006). Indicated amount of mRNAs was used for dot blot analysis using an antibody specific for m^6A (1:1,000; Synaptic Systems; Catalog #202003). The intensity of dot blot signal was quantified by Image J.
as §1

brain astrocytes = test: Cell growth assay, control cells (astrocytes); type: cell-based
PBT003 cells [5] = test: Intratumoral MA2 in PBT003-grafted NSG mice; type: in vivo; settings: vs vehicle control
Protocol: Introcranial delivery of the FTO inhibitor MA2: PBT003 cells (2×10^5) transduced with luciferase expressing lentivirus were intracranially transplanted into the frontal lobe of NSG mice at the same coordinates as described above. One week after transplantation, tumors were detected by bioluminescence imaging and mice were treated with MA2 (5 μl of 600 μM MA2 in 1% DMSO in PBS per mouse) or vehicle control by intratumoral injection once a week for four weeks. Tumor growth was monitored by bioluminescence imaging every week for six weeks. The bioluminescence intensity was quantified.
To test the effect of the FTO inhibitor on GSC-initiated tumorigenesis, PBT003-grafted mice were treated with the selective FTO inhibitor MA2 intratumorally once a week for four weeks (FIG. 11d). Tumor formation was monitored by bioluminescence xenogen imaging.

PBT707 = test: Cell growth assay, MA2-treated GSCs (PBT707); type: cell-based, human; settings: 48 h
Protocol: as §1

[6] = tested on: ADAM19, EPHA3, and KLF4 expression in PBT003 cells; test: RT-PCR of oncogene expression in GSCs; type: cell-based, human
Protocol: RT-PCR: Total RNAs isolated using Trizol reagent (Ambion) were subjected to reverse transcription (RT) performed using the Tetro cDNA synthesis Kit (BioLINE). RT-PCR reactions were performed using SYBR Green Master Mix (Thermo Scientific) on the Step One Plus Real-Time PCR instrument (Applied Biosystems). The primers for RT-PCR include METLL3 (F 5′-TCAGCATCGGAACCAGCAAAG-3′ (SEQ ID NO: 8); R 5′-TCCTGACTGACCTTCTTGCTC-3′ (SEQ ID NO: 9)), METLL14 (F 5′-GTTGGAACATGGATAGCCGC-3′ (SEQ ID NO: 10); R 5′-CAATGCTGTCGGCACTTTCA-3′ (SEQ ID NO: 11)), CD44 (F 5′-TGAGCATCGGATTTGAGACC-3′ (SEQ ID NO: 12); R 5′-TGTCATACTGGGAGGTGTTGG-3′ (SEQ ID NO: 13)), ADAM19 (F 5′-CCTGGATGGACAAGAGGAAG-3′ (SEQ ID NO: 14); R 5′-CTCAGCTTTGAGTGGATGCT-3′ (SEQ ID NO: 15)), EPAH3 (F 5′-GGGCTGGATCTCTTATCCATC-3′ (SEQ ID NO: 16); R 5′-GGACCCAGTTTGTTCTCAGC-3′ (SEQ ID NO: 17)), KLF4 (F 5′-AAGAGTTCCCATCTCAAGGC-3′ (SEQ ID NO: 18); R 5′-CCGTGTGTTTACGGTAGTGC-3′ (SEQ ID NO: 19)), and ACTIN (F 5′-CCGCAAAGACCTGTACGCCAAC-3′ (SEQ ID NO: 20); R 5′-CCAGGGCAGTGATCTCCTTCTG-3′ (SEQ ID NO: 21)). ACTIN was included as the reference gene for normalization. The ΔΔCt method was used for quantification analysis.

PBT726 = test: Cell growth assay, MA2-treated GSCs (PBT726); type: cell-based, human; settings: 48 h
Protocol: as §1

PBT111 = test: Cell growth assay, MA2-treated GSCs (PBT111); type: cell-based, human; settings: 48 h
Protocol: as §1

Sequence of FTO (Q9C0B1 whole entry): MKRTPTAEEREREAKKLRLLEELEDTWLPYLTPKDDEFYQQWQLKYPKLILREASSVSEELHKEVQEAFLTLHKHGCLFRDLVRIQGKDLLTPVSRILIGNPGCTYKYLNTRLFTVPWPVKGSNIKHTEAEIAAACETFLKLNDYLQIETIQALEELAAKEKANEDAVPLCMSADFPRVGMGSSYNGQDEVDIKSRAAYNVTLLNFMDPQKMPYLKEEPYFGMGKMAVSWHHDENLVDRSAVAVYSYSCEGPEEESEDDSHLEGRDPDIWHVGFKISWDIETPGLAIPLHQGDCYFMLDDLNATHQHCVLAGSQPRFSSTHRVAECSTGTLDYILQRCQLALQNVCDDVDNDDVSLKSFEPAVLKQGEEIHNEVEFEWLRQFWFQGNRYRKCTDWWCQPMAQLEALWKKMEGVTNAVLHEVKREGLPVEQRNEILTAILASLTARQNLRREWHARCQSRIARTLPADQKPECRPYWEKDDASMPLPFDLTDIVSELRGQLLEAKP

## CCOC(=O)c1ccccc1Nc1c(Cl)ccc(C)c1Cl [MA2, ethyl ester form of meclofenamic acid (MA)]
GSCs [1]
  sphere formation rate: reversed the effect of elevated sphere formation rate
[2]; NSC006, up to 60 μM
  cell growth: no substantial effect
[2]; NSCs, 80 μM
  cell growth: Mild effect
PBT003 cells [3]
  cell growth: dramatic growth inhibitory effect
HeLa cells; 80 μM
  cell growth: Mild effect
HeLa cells; up to 60 μM
  cell growth: no substantial effect
FTO
  FTO inhibition: selective inhibitor of FTO
GSCs [4]
  self-renewal of GSCs (stem cell frequency): dramatically inhibited the self-renewal
mRNA m^6A level in GSCs
  mRNA m^6A level: substantial increase
Brain astrocytes; astrocytes, 80 μM
  cell growth: Mild effect
Brain astrocytes; brain astrocytes, up to 60 μM
  cell growth: no substantial effect
PBT003 cells [5]; 4 or 5 weeks after compound treatment
  tumor luciferase activity: significant decrease
PBT003 cells [5]; intratumoral, once a week for four weeks
  tumor size by bioluminescence xenogen imaging: much smaller tumors
PBT003 cells [5]; log-rank test
  survival: substantially prolonged survival
PBT707; PBT707, 40 μM
  cell growth: suppressed the growth
PBT707; PBT707, 60 μM and 80 μM
  cell growth: substantial inhibitory effect
[6]
  expression of ADAM19, EPHA3, and KLF4: decreased expression
PBT726; PBT726, 40 μM
  cell growth: suppressed the growth
PBT726; PBT726, 60 μM and 80 μM
  cell growth: substantial inhibitory effect
PBT111; PBT111, 20 μM and 40 μM
  cell growth: inhibited the growth
PBT111; PBT111, 60 μM and 80 μM
  cell growth: substantial inhibitory effect
